Results as given in US8399480B2, “Hydroxymethyl pyrrolidines as beta 3 adrenergic receptor agonists” (Merck Sharp & Dohme Corp., priority 2008, dated 2013).

Biological target: T1, human β3 adrenergic receptor (Homo sapiens, UniProt P13945)
T1 construct: expressed in transfected cells; host or cells: Chinese hamster ovary (CHO) cells, stably transfected
Assay: Functional assay: cAMP production (LANCE TR-FRET) in CHO cells stably transfected with cloned β3 adrenergic receptor
Assay type: cell-based
Details: Table 4; human β3 functional activity; read-out: Human β Binding
In short: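 Agonist-stimulated cAMP in CHO cells stably expressing human β3 receptor, 6,000 cells per well in HBSS/HEPES/0.1% BSA with 0.6 mM IBMX, 30 min at room temperature. LANCE TR-FRET readout converted to cAMP via standard curve; maximal stimulation defined with isoproterenol.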

T1 sequence (P13945 whole entry): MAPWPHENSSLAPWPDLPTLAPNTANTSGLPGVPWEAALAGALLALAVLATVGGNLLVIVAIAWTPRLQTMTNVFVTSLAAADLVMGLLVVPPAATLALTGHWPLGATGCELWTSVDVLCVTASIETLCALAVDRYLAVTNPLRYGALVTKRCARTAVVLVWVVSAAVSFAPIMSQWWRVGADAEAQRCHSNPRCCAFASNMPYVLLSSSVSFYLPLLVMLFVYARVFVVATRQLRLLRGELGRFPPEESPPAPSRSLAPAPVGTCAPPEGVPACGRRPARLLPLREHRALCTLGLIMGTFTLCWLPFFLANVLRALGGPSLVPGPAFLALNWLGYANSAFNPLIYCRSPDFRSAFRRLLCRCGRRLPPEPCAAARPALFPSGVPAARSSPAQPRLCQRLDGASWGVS

Row | Structure (SMILES) | EC50 [nM]
1 | O=C(Nc1ccc(C[C@@H]2CC[C@H]([C@H](O)c3ccccc3)N2)cc1)C1CCCN1c1ccc(Cl)cc1 (stereo partly shown) [Example 37] | 101 to 1000
2 | O=C(Cc1ccccn1)Nc1ccc(C[C@@H]2CC[C@H]([C@H](O)c3ccccc3)N2)cc1 [Example 43] | 11 to 100
3 | O=C(Cc1cccnc1)Nc1ccc(C[C@@H]2CC[C@H]([C@H](O)c3ccccc3)N2)cc1 [Example 44] | 101 to 1000
4 | O=C(Cc1ccncc1)Nc1ccc(C[C@@H]2CC[C@H]([C@H](O)c3ccccc3)N2)cc1 [Example 45] | 1000 to 3000
5 | O=C(Cn1cccnc1=O)Nc1ccc(C[C@@H]2CC[C@H]([C@H](O)c3ccccc3)N2)cc1 [Example 64] | 1 to 10
6 | O=C(Cn1ccc(=O)nc1)Nc1ccc(C[C@@H]2CC[C@H]([C@H](O)c3ccccc3)N2)cc1 [Example 66] | 101 to 1000
7 | O=C(CC1NC(=O)NC1=O)Nc1ccc(C[C@@H]2CC[C@H]([C@H](O)c3ccccc3)N2)cc1 (stereo partly shown) [Example 69] | 101 to 1000
8 | O=C(Cc1ccccc1F)Nc1ccc(C[C@@H]2CC[C@H]([C@H](O)c3ccccc3)N2)cc1 [Example 70] | 11 to 100
9 | O=C(Cn1cnnn1)Nc1ccc(C[C@@H]2CC[C@H]([C@H](O)c3ccccc3)N2)cc1 [Example 77] | 11 to 100
10 | O=C(Cn1ncnn1)Nc1ccc(C[C@@H]2CC[C@H]([C@H](O)c3ccccc3)N2)cc1 [Example 78] | 11 to 100
11 | O=C(Cn1cncn1)Nc1ccc(C[C@@H]2CC[C@H]([C@H](O)c3ccccc3)N2)cc1 [Example 80] | 11 to 100
12 | O=C(Cn1nccn1)Nc1ccc(C[C@@H]2CC[C@H]([C@H](O)c3ccccc3)N2)cc1 [Example 81] | 11 to 100
13 | CC1=NN(CC(=O)Nc2ccc(C[C@@H]3CC[C@H]([C@H](O)c4ccccc4)N3)cc2)C(=O)C1 [Example 83] | 11 to 100
14 | O=C(CC1CCCNC1=O)Nc1ccc(C[C@@H]2CC[C@H]([C@H](O)c3ccccc3)N2)cc1 (stereo partly shown) [Example 85] | 101 to 1000
15 | O=C(CN1CCOC1=O)Nc1ccc(C[C@@H]2CC[C@H]([C@H](O)c3ccccc3)N2)cc1 [Example 90] | 11 to 100
16 | Cc1ccc(OCC(=O)Nc2ccc(C[C@@H]3CC[C@H]([C@H](O)c4ccccc4)N3)cc2)nn1 [Example 95] | 11 to 100
17 | Cc1nc2c(CC(=O)Nc3ccc(C[C@@H]4CC[C@H]([C@H](O)c5ccccc5)N4)cc3)cccn2n1 [Example 97] | 1000 to 3000
18 | CN1CCCN(CC(=O)Nc2ccc(C[C@@H]3CC[C@H]([C@H](O)c4ccccc4)N3)cc2)C1=O [Example 99] | 11 to 100

Further lines, results first:

Row | EC50 [nM] | Structure (SMILES)
19 | 1 to 10 | O=C(Nc1ccc(C[C@@H]2CC[C@H]([C@H](O)c3ccccc3)N2)cc1)C1CCCN1c1cccc(Br)c1 (stereo partly shown) [Example 38]
20 | 11 to 100 | O=C(Nc1ccc(C[C@@H]2CC[C@H]([C@H](O)c3ccccc3)N2)cc1)C1CCCN1c1cccc(I)c1 (stereo partly shown) [Example 39]
21 | 11 to 100 | O=C(Nc1ccc(C[C@@H]2CC[C@H]([C@H](O)c3ccccc3)N2)cc1)C1CCCN1c1nc2ccccc2s1 (stereo partly shown) [Example 40]
22 | 1 to 10 | O=C(Nc1ccc(C[C@@H]2CC[C@H]([C@H](O)c3ccccc3)N2)cc1)C1CCCN1c1nccs1 (stereo partly shown) [Example 41]
23 | 11 to 100 | O=C(Cc1ncccn1)Nc1ccc(C[C@@H]2CC[C@H]([C@H](O)c3ccccc3)N2)cc1 [Example 46]
24 | 1 to 10 | O=C(CCc1nc(-c2ccccc2)no1)Nc1ccc(C[C@@H]2CC[C@H]([C@H](O)c3ccccc3)N2)cc1 [Example 47]
25 | 1 to 10 | O=C(Cn1ncc2ccccc2c1=O)Nc1ccc(C[C@@H]2CC[C@H]([C@H](O)c3ccccc3)N2)cc1 [Example 49]
26 | < 1 | O=C(Cn1c(=O)[nH]c2ccccc2c1=O)Nc1ccc(C[C@@H]2CC[C@H]([C@H](O)c3ccccc3)N2)cc1 [Example 50]
27 | 1 to 10 | O=C(Cn1nc(Cl)ccc1=O)Nc1ccc(C[C@@H]2CC[C@H]([C@H](O)c3ccccc3)N2)cc1 [Example 51]
28 | 1 to 10 | Cc1cn(CC(=O)Nc2ccc(C[C@@H]3CC[C@H]([C@H](O)c4ccccc4)N3)cc2)c(=O)[nH]c1=O [Example 52]
29 | 1 to 10 | O=C(Cn1[nH]c(=O)c2ccccc2c1=O)Nc1ccc(C[C@@H]2CC[C@H]([C@H](O)c3ccccc3)N2)cc1 [Example 53]
30 | 1 to 10 | NC(=O)c1nn(CC(=O)Nc2ccc(C[C@@H]3CC[C@H]([C@H](O)c4ccccc4)N3)cc2)c(=O)c2ccccc12 [Example 54]
31 | 1 to 10 | O=C(Cn1cnc2sccc2c1=O)Nc1ccc(C[C@@H]2CC[C@H]([C@H](O)c3ccccc3)N2)cc1 [Example 55]
32 | 1 to 10 | O=C(Cn1c(=O)[nH]c(=O)c2ccccc21)Nc1ccc(C[C@@H]2CC[C@H]([C@H](O)c3ccccc3)N2)cc1 [Example 57]
33 | 1 to 10 | Cc1cccc2c(=O)n(CC(=O)Nc3ccc(C[C@@H]4CC[C@H]([C@H](O)c5ccccc5)N4)cc3)cnc12 [Example 58]
34 | 1 to 10 | O=C(Cn1nnc2ccccc2c1=O)Nc1ccc(C[C@@H]2CC[C@H]([C@H](O)c3ccccc3)N2)cc1 [Example 59]
35 | 1 to 10 | Cn1ncc2c(=O)n(CC(=O)Nc3ccc(C[C@@H]4CC[C@H]([C@H](O)c5ccccc5)N4)cc3)cnc21 [Example 60]

Row | EC50 [nM] | Structure (SMILES)
36 | 1 to 10 | O=C(Cn1ccc2ncccc2c1=O)Nc1ccc(C[C@@H]2CC[C@H]([C@H](O)c3ccccc3)N2)cc1 [Example 62]
37 | 1 to 10 | O=C(Cn1ccc(=O)[nH]c1=O)Nc1ccc(C[C@@H]2CC[C@H]([C@H](O)c3ccccc3)N2)cc1 [Example 63]
38 | 11 to 100 | O=C(Cn1ccncc1=O)Nc1ccc(C[C@@H]2CC[C@H]([C@H](O)c3ccccc3)N2)cc1 [Example 67]
39 | 11 to 100 | O=C(Cc1n[nH]c(=O)[nH]1)Nc1ccc(C[C@@H]2CC[C@H]([C@H](O)c3ccccc3)N2)cc1 [Example 68]
40 | 1 to 10 | O=C(Cc1c(F)cccc1F)Nc1ccc(C[C@@H]2CC[C@H]([C@H](O)c3ccccc3)N2)cc1 [Example 71]
41 | 11 to 100 | O=C(Cc1cccc(F)c1F)Nc1ccc(C[C@@H]2CC[C@H]([C@H](O)c3ccccc3)N2)cc1 [Example 72]
42 | 11 to 100 | O=C(Cc1nnc[nH]1)Nc1ccc(C[C@@H]2CC[C@H]([C@H](O)c3ccccc3)N2)cc1 [Example 73]
43 | 1 to 10 | Cc1nc(CC(=O)Nc2ccc(C[C@@H]3CC[C@H]([C@H](O)c4ccccc4)N3)cc2)no1 [Example 74]
44 | 11 to 100 | O=C(Cc1nnn[nH]1)Nc1ccc(C[C@@H]2CC[C@H]([C@H](O)c3ccccc3)N2)cc1 [Example 75]
45 | 11 to 100 | Cn1nnnc1CC(=O)Nc1ccc(C[C@@H]2CC[C@H]([C@H](O)c3ccccc3)N2)cc1 [Example 76]
46 | 1 to 10 | Cc1cn(CC(=O)Nc2ccc(C[C@@H]3CC[C@H]([C@H](O)c4ccccc4)N3)cc2)nn1 [Example 79]
47 | 1 to 10 | Cc1nonc1CC(=O)Nc1ccc(C[C@@H]2CC[C@H]([C@H](O)c3ccccc3)N2)cc1 [Example 82]
48 | 1 to 10 | O=C(CN1CCCC1=O)Nc1ccc(C[C@@H]2CC[C@H]([C@H](O)c3ccccc3)N2)cc1 [Example 87]
49 | 1 to 10 | O=C(CN1CCCCC1=O)Nc1ccc(C[C@@H]2CC[C@H]([C@H](O)c3ccccc3)N2)cc1 [Example 89]
50 | 1 to 10 | O=C(CN1CCSC1=O)Nc1ccc(C[C@@H]2CC[C@H]([C@H](O)c3ccccc3)N2)cc1 [Example 91]
51 | 1 to 10 | O=C(Cc1cnccn1)Nc1ccc(C[C@@H]2CC[C@H]([C@H](O)c3ccccc3)N2)cc1 [Example 94]
52 | 1 to 10 | O=C(CN1CCCOC1=O)Nc1ccc(C[C@@H]2CC[C@H]([C@H](O)c3ccccc3)N2)cc1 [Example 98]

Same assay, conditions: Table 5; read-out: Human β3 Functional

Row | Structure (SMILES) | EC50 [nM]
53 | C[C@@H](C(=O)Nc1ccc(C[C@@H]2CC[C@H]([C@H](O)c3ccccc3)N2)cc1)c1csc(N)n1 [Example 104] | < 1
54 | C[C@H](C(=O)Nc1ccc(C[C@@H]2CC[C@H]([C@H](O)c3ccccc3)N2)cc1)c1csc(N)n1 [Example 105] | < 1
55 | O=C(Nc1ccc(CC2CCC(C(O)c3ccccc3)N2)cc1)C1Cc2ccccc2C1 (stereo not shown) [Example 106] | 11 to 100
56 | Nc1nc(C(CCF)C(=O)Nc2ccc(CC3CCC(C(O)c4ccccc4)N3)cc2)cs1 (stereo not shown) [Example 222] | < 1

Same assay, conditions: Table 7; β3AR-cAMP; read-out: Human β3 Functional

Row | Structure (SMILES) | EC50 [nM]
57 | O=S(=O)(Nc1ccc(C[C@@H]2CC[C@H]([C@H](O)c3ccccc3)N2)cc1)c1cccc2ccccc12 [Example 235] | 101 to 1000
58 | O=S(=O)(Nc1ccc(C[C@@H]2CC[C@H]([C@H](O)c3ccccc3)N2)cc1)c1cccc2ccncc12 [Example 236] | 1000 to 3000
59 | O=S(=O)(Nc1ccc(C[C@@H]2CC[C@H]([C@H](O)c3ccccc3)N2)cc1)c1cccc2cccnc12 [Example 237] | 101 to 1000
60 | O=S(=O)(Nc1ccc(C[C@@H]2CC[C@H]([C@H](O)c3ccccc3)N2)cc1)c1cccc2ncccc12 [Example 238] | 101 to 1000
61 | O=S(=O)(Nc1ccc(C[C@@H]2CC[C@H]([C@H](O)c3ccccc3)N2)cc1)c1ccc2ncsc2c1 [Example 239] | 11 to 100
62 | O=S(=O)(Nc1ccc(C[C@@H]2CC[C@H]([C@H](O)c3ccccc3)N2)cc1)c1ccc(-n2cccn2)cc1 [Example 240] | 101 to 1000
63 | O=S(=O)(Nc1ccc(C[C@@H]2CC[C@H]([C@H](O)c3ccccc3)N2)cc1)c1ccc(-c2cocn2)cc1 [Example 241] | 11 to 100
64 | Cc1nnc(-c2cccc(S(=O)(=O)Nc3ccc(C[C@@H]4CC[C@H]([C@H](O)c5ccccc5)N4)cc3)c2)o1 [Example 242] | 101 to 1000
65 | Cc1nccc(-c2cccc(S(=O)(=O)Nc3ccc(C[C@@H]4CC[C@H]([C@H](O)c5ccccc5)N4)cc3)c2)n1 [Example 243] | 101 to 1000
66 | Cn1cnc(S(=O)(=O)Nc2ccc(C[C@@H]3CC[C@H]([C@H](O)c4ccccc4)N3)cc2)c1 [Example 246] | 101 to 1000

Same assay, conditions: given as a range; cAMP, CHO cells; read-out: human β3 functional activity

Row | Structure (SMILES) | EC50 [nM]
67 | O=S(=O)(Nc1ccc(C[C@@H]2CC[C@H]([C@H](O)c3ccccc3)N2)cc1)c1ccc(-c2nc(-c3ccc(C(F)(F)F)cc3)cs2)cc1 [Example 233, N-[4-({(2S,5R)-5-[(R)-hydroxy(phenyl)methyl]pyrrolidin-2-yl}methyl)phenyl]-4-{4-[4-(trifluoromethyl)phenyl]-1,3-thiazol-2-yl}benzenesulfonamide] | 1 to 10
